Results on 21 compounds are retold here after ChEMBL document CHEMBL3045621, “Synthesis and Structure-activity Relationships of Herbicidal Thiophene Sulfonylurea Compounds” (J Pestic Sci, 1997).

Each structure is given as a SMILES string.

Series [1] concerns Schoenoplectiella juncoides. Nature of the series: Herbicidal activity against Schoenoplectiella juncoides assessed as dose required to cause sufficient herbicidal activity after 5 to 7 days. Format: functional.
The next series concerns Oryza sativa. Briefly: Toxicity in two leaf stage of Oryza sativa var. Nihonbare (rice) assessed as dose required to selectivity to Oryza sativa. Format: organism-based. To be noted: in vivo.
The test system of another series is Echinochloa oryzicola. Nature of the series: Herbicidal activity against Echinochloa oryzicola assessed as dose required to cause sufficient herbicidal activity. It is filed as functional.
A further series deals with Sagittaria pygmaea. Nature of the series: Herbicidal activity against Sagittaria pygmaea assessed as dose required to cause sufficient herbicidal activity after 5 to 7 days. Format: functional.

In the case of `COc1cc(OC)nc(NC(=O)NS(=O)(=O)c2sccc2CC#N)n1`, the MED in series [1] was 0.156 g/acre; in the series with Oryza sativa, 0.0391 g/acre; in the series on Echinochloa oryzicola, 0.625 g/acre.
Regarding `CNC(=O)Cc1ccsc1S(=O)(=O)NC(=O)Nc1nc(OC)cc(OC)n1`, the MED came to 0.625 g/acre in series [1], 1.25 g/acre in the series on Oryza sativa and 0.313 g/acre with Sagittaria pygmaea.
On to `COc1cc(OC)nc(NC(=O)NS(=O)(=O)c2sccc2C[N+](=O)[O-])n1`, for which, in the series on Oryza sativa, the MED came to 0.625 g/acre.
In the case of `CCN(CC)Cc1ccsc1S(=O)(=O)NC(=O)Nc1nc(OC)cc(OC)n1`, the MED was determined as 0.625 g/acre in the series with Oryza sativa and 5 g/acre with Echinochloa oryzicola.
Turning to `COCCOCc1ccsc1S(=O)(=O)NC(=O)Nc1nc(OC)cc(OC)n1`, the MED is reported as 0.313 g/acre in series [1], 0.156 g/acre in the series on Oryza sativa and 0.313 g/acre with Sagittaria pygmaea.
Consider `COc1cc(OC)nc(NC(=O)NS(=O)(=O)c2sccc2CN(C)C)n1`, for which the figures for the MED (in series [1]; in the series with Sagittaria pygmaea; in the series with Echinochloa oryzicola) were 10 g/acre, 10 g/acre and 20 g/acre, respectively.
In the case of `COc1cc(OC)nc(NC(=O)NS(=O)(=O)c2sccc2COCC(F)(F)Cl)n1`, the MED worked out at 2.5 g/acre in series [1], 1.25 g/acre with Oryza sativa and 5 g/acre in the series on Echinochloa oryzicola.
The like results for `COc1cc(OC)nc(NC(=O)NS(=O)(=O)c2sccc2COC(C)C(F)(F)F)n1` (stereo not drawn) were, in that order, 2.5 g/acre, 1.25 g/acre and 5 g/acre.
Take `COc1cc(OC)nc(NC(=O)NS(=O)(=O)c2sccc2COCCO)n1`: the MED in series [1] was found to be 0.625 g/acre; in the series on Oryza sativa it was 0.313 g/acre; with Echinochloa oryzicola, 0.625 g/acre.
Regarding `COc1cc(OC)nc(NC(=O)NS(=O)(=O)c2sccc2Cn2cccn2)n1`, the MED came out at 1.25 g/acre in series [1], 0.625 g/acre with Oryza sativa and 5 g/acre with Echinochloa oryzicola.
`COc1cc(OC)nc(NC(=O)NS(=O)(=O)c2sccc2COCCCCl)n1`: the MED in the series on Oryza sativa amounted to 0.313 g/acre; with Echinochloa oryzicola it was 1.25 g/acre.
As for `COc1cc(OC)nc(NC(=O)NS(=O)(=O)c2cscc2COCCF)n1`, the MED in series [1] is 0.156 g/acre; with Oryza sativa, 0.625 g/acre; in the series with Sagittaria pygmaea, 0.0781 g/acre.
Regarding `CCOC(=O)COCc1ccsc1S(=O)(=O)NC(=O)Nc1nc(OC)cc(OC)n1`, in the series on Oryza sativa, the MED worked out at 1.25 g/acre.
As for `COc1nc(NC(=O)NS(=O)(=O)c2sccc2COCCF)nc(OC)n1`, the values for the MED in the series with Oryza sativa and with Echinochloa oryzicola were 0.313 g/acre and 5 g/acre, respectively.
As for `Cc1cc(C)nc(NC(=O)NS(=O)(=O)c2sccc2COCCF)n1`, in the series on Oryza sativa, the MED worked out at 0.156 g/acre.
Turning to `COc1cc(OC)nc(NC(=O)NS(=O)(=O)c2sccc2CSC)n1`, the MED with Oryza sativa is given as 0.156 g/acre; in the series on Sagittaria pygmaea it was 0.0195 g/acre; with Echinochloa oryzicola, 0.313 g/acre.
As to `COc1cc(OC)nc(NC(=O)NS(=O)(=O)c2ccsc2COCCF)n1`, the MED in series [1] is on record as 0.0781 g/acre; in the series with Oryza sativa, 0.313 g/acre.
Regarding `COc1nc(NC(=O)NS(=O)(=O)c2c(COCCF)cnn2C)nc(OC)n1`, the MED in series [1] turned out to be 0.313 g/acre; in the series with Oryza sativa it was 1.25 g/acre; in the series with Echinochloa oryzicola, 0.625 g/acre.
For the compound `COc1cc(OC)nc(NC(=O)NS(=O)(=O)c2sccc2COCCCl)n1`, the MED in series [1] is recorded as 0.156 g/acre; in the series on Oryza sativa it was 0.625 g/acre; in the series with Sagittaria pygmaea it was 0.156 g/acre.
As for `COc1cc(OC)nc(NC(=O)NS(=O)(=O)c2sccc2COC(CF)CF)n1`, the values for the MED with Oryza sativa, with Sagittaria pygmaea and in the series on Echinochloa oryzicola were 0.625 g/acre, 0.313 g/acre and 1.25 g/acre, respectively.
For the compound `COCc1ccsc1S(=O)(=O)NC(=O)Nc1nc(OC)cc(OC)n1`, the MED in series [1] is 0.0391 g/acre; in the series with Oryza sativa, 0.0781 g/acre; in the series on Sagittaria pygmaea it was 0.0195 g/acre.
